The values below come from US20230321123A1, “INHIBITORS OF PSEUDOMONAS AERUGINOSA VIRULENCE FACTOR LasB” (Helmholtz-Zentrum Für Infektionsforschung GmbH, priority 2020, published 2023).

This assay addresses LasB (Pseudomonas aeruginosa, UniProt Q02RJ6). Nature of the assay: biochemical. Also on record: species or system P. aeruginosa.

In general, IC50 refers to the concentration that inhibits the measured activity by half.

SMILES strings stand for the structures. Read-outs that look alike come from different tables or passages of the source.

Sequence of LasB (Q02RJ6 198-498): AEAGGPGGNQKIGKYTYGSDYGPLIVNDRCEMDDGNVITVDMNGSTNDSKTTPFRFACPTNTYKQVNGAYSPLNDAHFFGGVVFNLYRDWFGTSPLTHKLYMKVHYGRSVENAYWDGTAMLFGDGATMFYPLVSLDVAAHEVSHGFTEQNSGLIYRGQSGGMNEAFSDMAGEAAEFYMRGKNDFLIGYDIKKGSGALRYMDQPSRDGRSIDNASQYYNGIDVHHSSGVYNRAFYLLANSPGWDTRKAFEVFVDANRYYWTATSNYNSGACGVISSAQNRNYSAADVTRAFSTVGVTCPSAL

Consider `CCCC(S)C(=O)Nc1ccc(C)cc1` (centres unmarked) [Example 25], for which the IC50 (IC50 against LasB) was 2000 ± 200 nM.
The compound `CC(C)CC(C(=O)N[C@@H]1CCCN(Cc2ccc(Cl)cc2)C1)P(=O)(O)O` (some centres unmarked) [Example 148] registered an IC50 (IC50 against LasB) of 8360 ± 260 nM.
The same measure, in the same setting: next, `CC(C)CC(C(=O)NC1CCN(Cc2ccc(Cl)cc2)CC1)P(=O)(O)O` (centres unmarked) [Example 146]: 2270 ± 70 nM; `CC(C)CC(C(=O)Nc1ccc(Cl)c(Cl)c1)P(=O)(O)O` (centres unmarked) [Example 64]: 26 ± 4 nM.
Same read-out and setting: under `CCCC(S)C(=O)Nc1ccc(Cl)c(Cl)c1` (centres unmarked) [Example 26] stands 4000 ± 600 nM.
Take `CC(C)CC(C(=O)N[C@@H](CC1CCOCC1)C(=O)Nc1ccc(Cl)c(Cl)c1)P(=O)(O)O` (some centres unmarked) [Example 169]: the midpoint of inhibition (IC50 against LasB), the IC50, lay at 378 ± 8 nM.
Same read-out and setting: next, `O=C(Nc1ccccc1)C(S)Cc1ccc(O)cc1` (centres unmarked) [Example 11]: 7300 ± 500 nM; `CC(C)CC(C(=O)Nc1ccc(NC(=O)c2ccc(Cl)c(Cl)c2)cc1)P(=O)(O)O` (centres unmarked) [Example 137]: 41 ± 3 nM; `CC(=O)c1ccc(NC(=O)C(CC(C)C)P(=O)(O)O)cc1` (centres unmarked) [Example 67]: 40 ± 12 nM.
Still for that read-out and setting: under `Cc1ccc(NC(=O)C(CC(C)C)P(=O)(O)O)c(C)c1` (centres unmarked) [Example 69] stands 84 ± 3 nM; under `COC(=O)c1ccc(NC(=O)C(CC(C)C)P(=O)(O)O)cn1` (centres unmarked) [Example 85], 194 ± 11 nM; under `CC(C)CC(C(=O)N[C@H](C(=O)Nc1ccc(Cl)c(Cl)c1)c1ccccc1)P(=O)(O)O` (some centres unmarked) [Example 165], 100 ± 3 nM.
Same read-out and setting: next, `Cc1ccc(NC(=O)C(CC2CCCCC2)P(=O)(O)O)cc1` (centres unmarked) [Example 80]: 2030 ± 110 nM; `O=C(Nc1ccc(C(F)(F)F)cc1)C(Cc1ccccc1)P(=O)(O)O` (centres unmarked) [Example 79]: 102 ± 1 nM.
Turning to `Cc1ccc(NC(=O)C(Cc2ccccc2)P(=O)(O)O)cc1` (centres unmarked) [Example 78], half-maximal inhibition (IC50 against LasB) (IC50) required 137 ± 33 nM.
Still for that read-out and setting: next, `CCCCC(S)C(=O)Nc1ccc(Cl)c(Cl)c1` (centres unmarked) [Example 29]: 6800 ± 1100 nM; `CC(C)CC(C(=O)Nc1ccc(NC(=O)c2nc(Cl)cs2)cc1)P(=O)(O)O` (centres unmarked) [Example 129]: 49 ± 2 nM; `O=C(Nc1ccccc1)C(S)Cc1ccccc1` (single isomer, unassigned) [Example 1 E1, 2-Mercapto-N,3-diphenylpropanamide]: 4800 ± 700 nM.
The same measure, in the same setting: under `CC(C)CC(C(=O)NCC(=O)Nc1ccc(Cl)c(Cl)c1)P(=O)(O)O` (centres unmarked) [Example 163] stands 1756 ± 3 nM.
The same measure, in the same setting: under `CCC(S)C(=O)Nc1ccc(Cl)c(Cl)c1` (centres unmarked) [Example 18] stands 2400 ± 400 nM; under `Cc1ccc(NC(=O)C(CC(C)C)P(=O)(O)O)c(F)c1` (centres unmarked) [Example 65], 116 ± 16 nM.
As to `CC(C)C(CC(=O)N1CCN(Cc2ccc(-c3ccc(Cl)cc3)cc2)CC1)P(=O)(O)O` (centres unmarked) [Example 149], the IC50 (IC50 against LasB) came to 7280 ± 960 nM.
The same measure, in the same setting: under `O=C(Nc1ccccc1)C(S)Cc1ccccc1` (single isomer, unassigned) [Example 1 E2, 2-Mercapto-N,3-diphenylpropanamide] stands 1000 ± 100 nM.
Still for that read-out and setting: next, `CC(C)CC(C(=O)Nc1cnc(Cl)nc1)P(=O)(O)O` (centres unmarked) [Example 86]: 498 ± 25 nM.
With `O=C(Nc1nccs1)C(S)Cc1ccccc1` (centres unmarked) [Example 58], the IC50 (read-out: IC50 against LasB) was 1600 ± 100 nM.
The compound `CC(C)CC(C(=O)N[C@@H](CC(C)C)C(=O)Nc1ccc(Cl)c(Cl)c1)P(=O)(O)O` (some centres unmarked) [Example 155] had a half-inhibitory concentration (IC50) (IC50 against LasB) of 60 ± 2 nM.
Take `CC(C)CC(C(=O)Nc1ccc(C(F)(F)F)cc1)P(=O)(O)O` (centres unmarked) [Example 68]: it took 26 ± 8 nM to reach half-maximal inhibition (IC50 against LasB) (IC50).
Same read-out and setting: under `CC(C)CC(C(=O)Nc1ccc2c(c1)CCC2)P(=O)(O)O` (centres unmarked) [Example 77] stands 44 ± 4 nM; under `CC(C)CC(S)C(=O)Nc1ccccc1O` (centres unmarked) [Example 40], 1400 ± 200 nM.
The same measure, in the same setting: under `O=C(Nc1ccc([N+](=O)[O-])cc1)C(S)Cc1ccccc1` (centres unmarked) [Example 9] stands 970 ± 100 nM.
With `CC(C)CC(C(=O)N1CCC[C@H]1C(=O)Nc1ccc(Cl)c(Cl)c1)P(=O)(O)O` (some centres unmarked) [Example 166], the concentration for half-maximal inhibition (IC50) (IC50 against LasB) was 2540 ± 69 nM.
Still for that read-out and setting: next, `CC(C)CC(C(=O)Nc1ccc(Br)cc1)P(=O)(O)O` (centres unmarked) [Example 72]: 49 ± 2 nM.
